Source: US12473296B2, “Perk inhibiting compounds” (HiberCell, Inc., priority 2019, dated 2025)

Experiments:
[1] = molecular target: EIF2AK3 (PERK) catalytic domain (amino acids 536-1116) (Homo sapiens (Human), UniProt Q9NZJ5); assay: PERK in vitro activity assay (isolated), TR-FRET kinase assay; conditions: isolated PERK enzyme, 1.5 μM ATP, GFP-eIF2a substrate; read-out: Biochemical IC50
Outline: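 Human PERK catalytic domain (aa 536-1116) with 100-200 nM GFP-eIF2a in 50 mM HEPES pH 7.5, 10 mM MgCl2, 1.0 mM EGTA, 0.01% Brij-35; enzyme-started reaction run 45 min at room temperature. Stopped with 10 mM EDTA, 2 nM Tb-anti-phospho-eIF2a added for 90 min; IC50 from TR-FRET ratio by 4-parameter logistic fit.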

PERK = PERK (Homo sapiens (Human), UniProt Q9NZJ5); assay: PERK cellular assay (TR-FRET, HEK293-EGFP-eIF2α cells, tunicamycin-induced ER stress); assay type: cell-based; conditions: tunicamycin 2 hours, read-out: Cellular IC50 (μM) (EIF2a)
Sequence of PERK (Q9NZJ5 30-1116): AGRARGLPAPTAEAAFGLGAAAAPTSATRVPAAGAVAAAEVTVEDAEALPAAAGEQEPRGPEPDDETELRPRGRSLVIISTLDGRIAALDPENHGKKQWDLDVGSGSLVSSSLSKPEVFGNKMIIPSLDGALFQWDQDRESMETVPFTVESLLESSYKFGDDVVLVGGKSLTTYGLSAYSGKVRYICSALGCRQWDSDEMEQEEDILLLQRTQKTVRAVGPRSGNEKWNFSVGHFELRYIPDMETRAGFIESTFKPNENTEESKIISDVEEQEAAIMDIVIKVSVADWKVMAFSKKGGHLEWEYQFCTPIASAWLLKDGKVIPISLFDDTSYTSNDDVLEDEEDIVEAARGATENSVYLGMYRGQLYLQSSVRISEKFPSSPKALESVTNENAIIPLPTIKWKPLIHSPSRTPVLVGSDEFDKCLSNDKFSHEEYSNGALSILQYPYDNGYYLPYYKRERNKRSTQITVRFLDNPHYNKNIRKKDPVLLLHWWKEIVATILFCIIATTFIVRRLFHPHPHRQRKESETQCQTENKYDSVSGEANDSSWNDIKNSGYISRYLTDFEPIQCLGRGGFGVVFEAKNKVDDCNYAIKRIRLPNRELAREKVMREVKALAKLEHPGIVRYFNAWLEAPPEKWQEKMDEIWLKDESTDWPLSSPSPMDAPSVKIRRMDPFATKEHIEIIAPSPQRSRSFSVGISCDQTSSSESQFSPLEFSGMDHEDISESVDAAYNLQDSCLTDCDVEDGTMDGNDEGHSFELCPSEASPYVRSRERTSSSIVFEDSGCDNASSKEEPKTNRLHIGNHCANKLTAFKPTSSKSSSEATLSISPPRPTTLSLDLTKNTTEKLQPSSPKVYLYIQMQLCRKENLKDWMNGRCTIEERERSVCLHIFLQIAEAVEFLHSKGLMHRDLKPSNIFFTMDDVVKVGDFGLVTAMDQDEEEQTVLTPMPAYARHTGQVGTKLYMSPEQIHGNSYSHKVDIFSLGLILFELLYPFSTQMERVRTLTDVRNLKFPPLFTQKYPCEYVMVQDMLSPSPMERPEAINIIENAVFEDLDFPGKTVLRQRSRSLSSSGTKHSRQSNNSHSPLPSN
Outline: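 Cells pre-incubated with inhibitor 30 min at 37 °C, then ER stress induced with […] tunicamycin for 2 h. TR-FRET read on lysates; ratio normalized to DMSO control as percent inhibition over a 10-point, 3-fold dilution series; IC50 from 4-parameter logistic fit.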

Sequence of EIF2AK3 (PERK) catalytic domain (amino acids 536-1116) (Q9NZJ5 536-1116): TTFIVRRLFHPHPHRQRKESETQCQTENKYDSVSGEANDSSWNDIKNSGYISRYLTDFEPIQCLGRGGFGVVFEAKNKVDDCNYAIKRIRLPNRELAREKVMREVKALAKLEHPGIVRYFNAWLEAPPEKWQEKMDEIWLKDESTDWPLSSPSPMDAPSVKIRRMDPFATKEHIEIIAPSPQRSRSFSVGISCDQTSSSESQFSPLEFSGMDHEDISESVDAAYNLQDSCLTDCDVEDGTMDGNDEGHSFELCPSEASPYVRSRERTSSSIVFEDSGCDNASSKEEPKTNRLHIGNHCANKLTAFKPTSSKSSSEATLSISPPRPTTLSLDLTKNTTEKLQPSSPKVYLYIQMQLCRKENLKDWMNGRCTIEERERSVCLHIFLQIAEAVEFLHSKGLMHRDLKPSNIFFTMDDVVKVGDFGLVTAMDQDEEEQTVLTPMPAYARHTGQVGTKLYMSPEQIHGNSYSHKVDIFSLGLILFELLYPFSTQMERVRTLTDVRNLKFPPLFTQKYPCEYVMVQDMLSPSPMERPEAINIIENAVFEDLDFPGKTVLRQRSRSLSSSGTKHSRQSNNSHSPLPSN

SMILES | IC50 [1] | IC50 (PERK)
Cc1c(-c2cnc(N)c(C(=O)NC3COC3)c2)ccc(NC(=O)C(O)c2cc(F)cc(F)c2)c1F (stereo not shown) [Example 122, 2-amino-5-(4-(2-(3,5-difluorophenyl)-2-hydroxyacetamido)-3-fluoro-2-methylphenyl)-N-(oxetan-3-yl)nicotinamide] | 251 to 500 nM | 0.501 to 1 µM
CC(C)NC(=O)c1cc(-c2ccc(NC(=O)C(O)c3cc(F)cc(F)c3)c(F)c2Cl)cnc1N (stereo not shown) [Example 124, 2-amino-5-(2-chloro-4-(2-(3,5-diflouorophenyl)-2-hydroxyacetamido)-3-fluorophenyl)-N-isopropylnicotinamide] | 26 to 50 nM | 0.051 to 0.1 µM
Cc1cc(NC(=O)C(O)c2cc(F)cc(F)c2)c(F)cc1-c1cnc(N)c(C(=O)NC(C)C)c1 (stereo not shown) [Example 125, 2-amino-5-(4-(2-(3,5-difluorophenyl)-2-hydroxyacetamido)-5-fluoro-2-methylphenyl)-N-isopropylnicotinamide] | 101 to 250 nM | 0.501 to 1 µM
Cc1cc(NC(=O)C(O)c2cccc(C(F)(F)F)c2)ncc1-c1cnc(N)c(C(=O)NC(C)C)c1 (stereo not shown) [Example 127, 6-amino-6′-(2-hydroxy-2-(3-(trifluoromethyl)phenyl)acetamido)-N-isopropyl-4′-methyl-[3,3′-bipyridine]-5-carboxamide] | 251 to 500 nM | > 5 µM
Cc1cc(NC(=O)C(O)c2cccc(C(F)(F)F)c2)ncc1-c1cnc(N)c(C(=O)NC(C)C)c1 (stereo not shown) [Example 128, 6-amino-6′-(2-hydroxy-2-(3-(trifluoromethyl)phenyl)acetamido)-N-isopropyl-4′-methyl-[3,3′-bipyridine]-5-carboxamide] | 51 to 100 nM | > 5 µM
Cc1cc(NC(=O)C(O)c2cc(F)cc(F)c2)ccc1-c1cnc(N)c(C(=O)NC(C)C)n1 (stereo not shown) [Example 133, 3-amino-6-(4-(2-(3,5-difluorophenyl)-2-hydroxyacetamido)-2-methylphenyl)-N-isopropylpyrazine-2 carboxamide] | 51 to 100 nM | 0.101 to 0.25 µM
Cc1cc(NC(=O)C(O)c2cc(F)cc(F)c2)ccc1-c1cnc(N)c(C(=O)NCCN(C)C)n1 (stereo not shown) [Example 146, 3-amino-6-(4-(2-(3,5-difluorophenyl)-2-hydroxyacetamido)-2-methylphenyl)-N-(2-(dimethylamino)ethyl)pyrazine-2-carboxamide] | 26 to 50 nM | 0.101 to 0.25 µM
CCc1cc(NC(=O)C(O)c2cc(F)cc(F)c2)ccc1-c1cnc(N)c(C(=O)NC(C)C)n1 (stereo not shown) [Example 151, 3-amino-6-(4-(2-(3,5-difluorophenyl)-2-hydroxyacetamido)-2-ethylphenyl)-N-isopropylpyrazine-2-carboxamide] | 1 to 25 nM | 0.026 to 0.05 µM
CCc1cc(NC(=O)C(O)c2cc(F)cc(F)c2)ccc1-c1cnc(N)c(C(=O)NC(C)C)n1 (stereo not shown) [Example 152, 3-amino-6-(4-(2-(3,5-difluorophenyl)-2-hydroxyacetamido)-2-ethylphenyl)-N-isopropylpyrazine-2-carboxamide] | 101 to 250 nM | 0.101 to 0.25 µM
CCNC(=O)c1nc(-c2ccc(NC(=O)C(O)c3cc(F)cc(F)c3)cc2CC)cnc1N (stereo not shown) [Example 153, 3-amino-6-(4-(2-(3,5-difluorophenyl)-2-hydroxyactamido)-2-ethylphenyl)-N-ethylpyrazine-2-carboxamide] | 1 to 25 nM | 0.026 to 0.05 µM
CCc1cc(NC(=O)C(O)c2cc(F)cc(F)c2)ccc1-c1cnc(N)c(C(=O)NC2CC2)n1 (stereo not shown) [Example 156, 3-amino-N-cyclopropyl-6-(4-(2-(3,5-difluorophenyl)-2-hydroxyacetamido)-2-ethylphenyl)pyrazine-2-carboxamide] | 1 to 25 nM | 0.001 to 0.025 µM
CCc1cc(NC(=O)C(O)c2cc(F)cc(F)c2)ccc1-c1cnc(N)c(C(=O)NC2CC2)n1 (stereo not shown) [Example 157, 3-amino-N-cyclopropyl-6-(4-(2-(3,5-difluorophenyl)-2-hydroxyacetamido)-2-ethylphenyl) pyrazine-2-carboxamide] | 101 to 250 nM | 0.101 to 0.25 µM
CCc1cc(NC(=O)C(O)c2cc(F)cc(F)c2)ccc1-c1cnc(N)c(C(=O)NC2COC2)n1 (stereo not shown) [Example 158, 3-amino-6-(4-(3-(3,5-difluorophenyl)-2-hydroxyacetamido)-2-ethylphenyl)-N-(oxetan-3-yl)pyrazine-2-carboxamide] | 1 to 25 nM | 0.001 to 0.025 µM
CCc1cc(NC(=O)C(O)c2cc(F)cc(F)c2)ccc1-c1cnc(N)c(C(=O)NC2COC2)n1 (stereo not shown) [Example 159, 3-amino-6-(4-(2-(3,5-difluorophenyl)-2-hydroxyacetamido)-2-ethylphenyl)-N-(oxetan-3-yl)pyrazine-2-carboxamide] | 26 to 50 nM | 0.101 to 0.25 µM
CCc1cc(NC(=O)C(O)c2cccc(C)c2)ccc1-c1cnc(N)c(C(=O)NC(C)C)n1 (stereo not shown) [Example 160, 3-amino-6-(2-ethyl-4-(2-hydroxy-2-(m-tolyl)acetamido)phenyl)-N-isopropylpyrazine-2-carboxamide] | 1 to 25 nM | 0.001 to 0.025 µM
CCc1cc(NC(=O)C(O)c2cccc(C)c2)ccc1-c1cnc(N)c(C(=O)NC(C)C)n1 (stereo not shown) [Example 161, 3-amino-6-(2-ethyl-4-(2-hydroxy-2-(m-tolyl)acetamido)phenyl)-N-isopropylpyrazine-2-carboxamide] | 51 to 100 nM | 0.251 to 0.5 µM
Nc1ncc(-c2ccc(NC(=O)C(O)c3cc(F)cc(F)c3)cc2Cl)nc1C(=O)NCC(F)(F)F (stereo not shown) [Example 164, 3-amino-6-(2-chloro-4-(2-(3,5-difluorophenyl)-2-hydroxyacetamido)phenyl)-N-(2,2,2-trifluoroethyl) pyrazine-2-carboxamide] | 1000 to 2000 nM | 0.251 to 0.5 µM
Nc1ncc(-c2ccc(NC(=O)C(O)c3cc(F)cc(F)c3)cc2Cl)nc1C(=O)NCC(F)(F)F (stereo not shown) [Example 165, 3-amino-6-(2-chloro-4-(2-(3,5-difluorophenyl)-2-hydroxyacetamido)phenyl)-N-(2,2,2-trifluoroethyl) pyrazine-2-carboxamide] | 51 to 100 nM | 0.026 to 0.05 µM
Nc1ncc(-c2ccc(NC(=O)C(O)c3cc(F)cc(F)c3)cc2Cl)nc1C(=O)NC1COC1 (stereo not shown) [Example 168, 3-amino-6-(2-chloro-4-(2-(3,5-difluorophenyl)-2-hydroxyacetamido)phenyl)-N-(oxetan-3-yl)pyrazine-2-carboxamide] | 51 to 100 nM | 0.101 to 0.25 µM

Next, values leading:

IC50 [1] | IC50 (PERK) | SMILES
1 to 25 nM | 0.026 to 0.05 µM | CCNC(=O)c1cc(-c2ccc(NC(=O)C(O)c3cc(F)cc(F)c3)c(F)c2C)cnc1N (stereo not shown) [Example 118, 2-amino-5-(4-(2-(3,5-difluorophenyl)-2-hydroxyacetamido)-3-fluoro-2-methylphenyl)-N-ethylnicotinamide]
1 to 25 nM | 0.001 to 0.025 µM | Cc1c(-c2cnc(N)c(C(=O)NC3CC3)c2)ccc(NC(=O)C(O)c2cc(F)cc(F)c2)c1F (stereo not shown) [Example 119, 2-amino-N-cyclopropyl-5-(4-(2-(3,5-difluorophenyl)-2-hydroxyacetamido)-3-fluoro-2-methylphenyl) nicotinamide]
1 to 25 nM | 0.051 to 0.1 µM | Cc1c(-c2cnc(N)c(C(=O)NC3CC3)c2)ccc(NC(=O)C(O)c2cc(F)cc(F)c2)c1F (stereo not shown) [Example 120, 2-amino-N-cyclopropyl-5-(4-(2-(3,5-difluorophenyl)-2-hydroxyacetamido)-3-fluoro-2-methylphenyl) nicotinamide]
1 to 25 nM | 0.001 to 0.025 µM | Cc1c(-c2cnc(N)c(C(=O)NC3COC3)c2)ccc(NC(=O)C(O)c2cc(F)cc(F)c2)c1F (stereo not shown) [Example 121, 2-amino-5-(4-(2-(3,5-difluorophenyl)-2-hydroxyacetamido)-3-fluoro-2-methylphenyl)-N-(oxetan-3-yl)nicotinamide]
1 to 25 nM | 0.001 to 0.025 µM | CC(C)NC(=O)c1cc(-c2ccc(NC(=O)C(O)c3cc(F)cc(F)c3)c(F)c2Cl)cnc1N (stereo not shown) [Example 123, 2-amino-5-(2-chloro-4-(2-(3,5-difluorophenyl)-2-hydroxyacetamido)-3-fluorophenyl)-N-isopropylnicotinamide]
1 to 25 nM | 0.101 to 0.25 µM | Cc1cc(NC(=O)C(O)c2cc(F)cc(F)c2)c(F)cc1-c1cnc(N)c(C(=O)NC(C)C)c1 (stereo not shown) [Example 126, 2-amino-5-(4-(2-(3,5-difluorophenyl)-2-hydroxyacetamido)-5-fluoro-2-methylphenyl)-N-isopropylnicotinamide]
1 to 25 nM | 0.026 to 0.05 µM | Cc1cc(NC(=O)C(O)c2cc(F)cc(F)c2)ccc1-c1cnc(N)c(C(=O)NC(C)C)n1 (stereo not shown) [Example 134, 3-amino-6-(4-(2-(3,5-difluorophenyl)-2-hydroxyacetamido)-2-methylphenyl)-N-isopropylpyrazine-2-carboxamide]
1 to 25 nM | 0.026 to 0.05 µM | CNC(=O)c1nc(-c2ccc(NC(=O)C(O)c3cc(F)cc(F)c3)cc2C)cnc1N (stereo not shown) [Example 135, 3-amino-6-(4-(2-(3,5-difluorophenyl)-2-hydroxyacetamido)-2-methylphenyl)-N-methylpyrazine-2-carboxamide]
1 to 25 nM | 0.026 to 0.05 µM | Cc1cc(NC(=O)C(O)c2cc(F)cc(F)c2)ccc1-c1cnc(N)c(C(=O)NC2CC2)n1 (stereo not shown) [Example 138, 3-amino-N-cyclopropyl-6-(4-(2-(3,5-difluorophenyl)-2-hydroxyacetamido)-2-methylphenyl) pyrazine-2-carboxamide]
1 to 25 nM | 0.251 to 0.5 µM | Cc1cc(NC(=O)C(O)c2cc(F)cc(F)c2)ccc1-c1cnc(N)c(C(=O)NC2CC2)n1 (stereo not shown) [Example 139, 3-amino-N-cyclopropyl-6-(4-(2-(3,5-difluorophenyl)-2-hydroxyacetamido)-2-methylphenyl) pyrazine-2-carboxamide]
